Source: US20080027033A1, “Method and Composition for Treatment of Cutaneous Lesions” (Acrux DDS Pty Ltd, priority 2003, published 2008)

Test: diffusion across skin after transdermal spray administration
Details: effect of adding octyl salicylate to the transdermal spray formulation (Example 1); predicted cumulative amount, FIGS. 1 and 2

## C[C@]12CC[C@@H]3c4ccc(O)cc4CC[C@H]3[C@@H]1CC[C@@H]2O [estradiol]
  amount diffusing across the skin over 24 hours: significant marked increase
